The test system of the test is Chlorella sp. Kind of test: Growth of Chlorella sp. in Jaworskis Medium with different concentrations of copper. The class given is cell-based. The following applies: 14 days. The procedure: Fresh water algae Chlorella sp. cultivated at between 10° C. and 20° C. for 14 days on Jaworskis Medium (Table below) was inoculated into fresh, sterile Jaworskis Medium (prepared as per Table 11) containing copper sulphate solution and copper-containing soak solutions. The soak solution was obtained from the third soak of the second cycle of phototreated MSMCu from Example 3. The extent of growth of Chlorella sp. was observed after a further 14 days (Table 12).
After 14 days in different concentrations of copper.

`O=S(=O)([O-])[O-].[Cu+2]` [Copper sulphate solution, copper sulphate]: the “Growth of Chlorella sp., Abs 665 nm” value is recorded as 0.137 (copper concentration 1 μg/L); 0.143 (copper concentration 2 μg/L); 0.103 (copper concentration 5 μg/L); 0.081 (copper concentration 7 μg/L); 0.092 (copper concentration 9 μg/L). Further, the “Growth of Chlorella sp., Abs 780 nm” value (copper concentration 1 μg/L) is 0.118; the “Growth of Chlorella sp., Abs 780 nm” value (copper concentration 2 μg/L) is recorded as 0.128; the “Growth of Chlorella sp., Abs 780 nm” value (copper concentration 5 μg/L) came to 0.096; the “Growth of Chlorella sp., Abs 780 nm” value (copper concentration 7 μg/L) was 0.077; the “Growth of Chlorella sp., Abs 780 nm” value (copper concentration 9 μg/L) is 0.077.

The values above are taken from patent US20220312771A1, “BIOCIDAL COMPOSITE MATERIAL” (PENNOG LIMITED, priority 2019, published 2022).
